Structures can show the parent of a compound that is named as a salt.
Tests used:
BaF3 = assay: Proliferation of BaF3 cells, CCK8 cell viability assay; assay type: cell-based; conditions: Mus musculus, 72 hours
How it was run: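 Murine BaF3 lines carry retrovirally transduced human kinase domains fused to an N-terminal TEL fragment (cKIT, PDGFRα or PDGFRβ), and IL-3 is withdrawn so their growth depends on the fused kinase; parental BaF3 serves as the reference line. Living cells were quantified by CCK8 dehydrogenase activity, giving GI50 in μM.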

P210-BaF3 = assay: Proliferation of P210-BaF3 cells, CCK8 cell viability assay; assay type: cell-based; conditions: Mus musculus, 72 hours, stably expressing BCR-ABL mutant activated kinase
How it was run: (§1)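 Human kinase-region sequences were PCR-amplified, fused behind N-terminal TEL in MSCV-Puro and stably introduced into mouse BaF3 by retrovirus. IL-3 was then removed to give kinase-dependent lines. Compound effects on these and on parental BaF3 are scored as GI50 (μM) via CCK8 viable-cell quantification.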

P210/T315I-BaF3 = assay: Proliferation of P210/T315I-BaF3 cells, CCK8 cell viability assay; assay type: cell-based; conditions: Mus musculus, 72 hours, stably expressing BCR-ABL/T315I
Text: (§2) In this example the following cells were used: […] (purchased from ATCC), mouse P210-BaF3 (stably expressing BCR-ABL mutant activated kinase), mouse P210/T315I-BaF3 (stably expressing BCR-ABL/T315I mutant activated kinase), mouse FLT3-ITD-BaF3 (stably expressing FLT3/ITD mutant activated kinase), mouse TEL-FLT3-BaF3 (stably expressing FLT3 kinase), mouse TEL-cKIT-BaF3 (stably expressing cKIT kinase), mouse BaF3-tel/T670I-cKit (stably expressing cKIT/T670I mutant activated kinase), mouse Tel-VEGFR2-BaF3 (stably expressing VEGFR2 kinase), mouse Tel-PDGFRα-BaF3 (stably expressing PDGFRα kinase), mouse Tel-PDGFRβ-BaF3 (stably expressing PDGFRβ kinase), mouse Tel-RET-BaF3 (stably expressing RET kinase). The above cell lines were all constructed by our laboratory according to the following method: the kinase region sequences of human P210, P210/T315I, FLT3/ITD, FLT3, cKIT, cKIT/T670I, VEGFR2, PDGFRα, PDGFRβ, RET were respectively amplified by PCR, and inserted into MSCV-Puro vectors having N-terminal TEL or TPR fragments (Clontech). The vectors were stably transfected into mouse BaF3 cells by means of retrovirus, and the growth factor IL-3 were removed, eventually obtaining cell lines that depend on transferred protein P210, P210/T315I, FLT3/ITD, FLT3, cKIT, cKIT/T670I, VEGFR2, PDGFRα, PDGFRβ, or RET.
(§3) GI50 (unit: μM) was calculated by quantifying the number of living cells based on quantitative measurement of reductive dehydrogenase in living cells with CCK8 cell viability assay kit (Bestbio, China).

Tel-cKit-BaF3 = assay: Proliferation of Tel-cKit-BaF3 cells, CCK8 cell viability assay; assay type: cell-based, mouse; conditions: Mus musculus; 72 hours, CCK8; stably expressing cKIT kinase
How it was run: (§4)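 Parental murine BaF3 and IL-3-independent BaF3 transformants driven by TEL–cKIT, TEL–PDGFRα or TEL–PDGFRβ, with human kinase domains stably transduced by retrovirus. CCK8 dehydrogenase read-out gives GI50 (μM).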

Tel-cKit/T670I-BaF3 = assay: Proliferation of Tel-cKit/T670I-BaF3 cells, CCK8 cell viability assay; assay type: cell-based; conditions: Mus musculus, 72 hours, stably expressing cKIT/T670I
How it was run: as §4

Tel-FLT3-BaF3 = assay: Proliferation of Tel-FLT3-BaF3 cells, CCK8 cell viability assay; assay type: cell-based; conditions: Mus musculus, 72 hours, stably expressing FLT3 kinase
How it was run: as §1

FLT3-ITD-BaF3 = assay: Proliferation of FLT3-ITD-BaF3 cells, CCK8 cell viability assay; assay type: cell-based; conditions: Mus musculus, 72 hours, stably expressing FLT3/ITD
How it was run: as §1

Tel-RET-BaF3 = assay: Proliferation of Tel-RET-BaF3 cells, CCK8 cell viability assay; assay type: cell-based; conditions: Mus musculus, 72 hours, stably expressing RET kinase
Text: as §2, §3

TEL-PDGFRα-BaF3 = assay: Proliferation of TEL-PDGFRα-BaF3 cells, CCK8 cell viability assay; assay type: cell-based; conditions: Mus musculus, 72 hours, stably expressing PDGFRα kinase
How it was run: as §4

TEL-PDGFRβ-BaF3 = assay: Proliferation of TEL-PDGFRβ-BaF3 cells, CCK8 cell viability assay; assay type: cell-based; conditions: Mus musculus, 72 hours, stably expressing PDGFRβ kinase
How it was run: as §4

TEL-VEGFR2-BaF3 = assay: Proliferation of TEL-VEGFR2-BaF3 cells, CCK8 cell viability assay; assay type: cell-based; conditions: Mus musculus, 72 hours, stably expressing VEGFR2 kinase
How it was run: as §1

## CCC(=O)Nc1cc(Oc2ccc(NC(=O)Cc3ccccc3C(F)(F)F)cc2)ncn1 [Example 47, N-(6-{4-[2-(2-trifluoromethyl-phenyl)-acetylamino]-phenoxy}-pyrimidin-4-yl)-propanamide]
BaF3
  GI50: > 10 µM
P210-BaF3
  GI50: > 10 µM
P210/T315I-BaF3
  GI50: > 10 µM
Tel-cKit-BaF3
  GI50: 8.35 µM
Tel-cKit/T670I-BaF3
  GI50: > 10 µM
Tel-FLT3-BaF3
  GI50: 0.546 µM
FLT3-ITD-BaF3
  GI50: 0.142 µM
Tel-RET-BaF3
  GI50: > 10 µM
TEL-PDGFRα-BaF3
  GI50: 0.028 µM
TEL-PDGFRβ-BaF3
  GI50: 0.089 µM
TEL-VEGFR2-BaF3
  GI50: 3.17 µM

## Cc1ccc(NC(=O)NC2CCC(Oc3cc(NCCNC(=O)OC(C)(C)C)ncn3)CC2)cc1C(F)(F)F (centres unmarked) [Example 124, [2-(6-{4-[3-(4-methyl-3-trifluoromethyl-phenyl)-ureido]-cyclohexyloxy}-pyrimidin-4-ylamino)-ethyl]-aminotert-butyl Formate]
BaF3
  GI50: 1.17 µM
P210-BaF3
  GI50: 2.8 µM
P210/T315I-BaF3
  GI50: 1.54 µM
Tel-cKit-BaF3
  GI50: 2.56 µM
Tel-cKit/T670I-BaF3
  GI50: 2.27 µM
Tel-FLT3-BaF3
  GI50: 0.694 µM
FLT3-ITD-BaF3
  GI50: 0.149 µM
Tel-RET-BaF3
  GI50: 1.92 µM
TEL-PDGFRα-BaF3
  GI50: 0.15 µM
TEL-PDGFRβ-BaF3
  GI50: 0.18 µM
TEL-VEGFR2-BaF3
  GI50: 0.89 µM

## CC(=O)Nc1cc(Oc2ccc(NC(=O)Cc3cccc([N+](=O)[O-])c3C)cc2)ncn1 [Example 9, N-[4-(6-acetylamino-pyrimidin-4-yloxy)-phenyl]-2-(2-methyl-3-nitro-phenyl)-acetamide]
BaF3
  GI50: > 10 µM
P210-BaF3
  GI50: > 10 µM
P210/T315I-BaF3
  GI50: > 10 µM
Tel-cKit-BaF3
  GI50: 0.584 µM
Tel-cKit/T670I-BaF3
  GI50: 5.63 µM
Tel-FLT3-BaF3
  GI50: 0.012 µM
FLT3-ITD-BaF3
  GI50: 0.002 µM
Tel-RET-BaF3
  GI50: > 10 µM
TEL-PDGFRα-BaF3
  GI50: 0.004 µM
TEL-PDGFRβ-BaF3
  GI50: 0.01 µM
TEL-VEGFR2-BaF3
  GI50: 0.304 µM

## CC(=O)Nc1cc(Oc2ccc(NC(=O)Cc3ccccc3Br)cc2)ncn1 [Example 17, N-[4-(6-acetylamino-pyrimidin-4-yloxy)-phenyl]-2-(2-bromo-phenyl)-acetamide]
BaF3
  GI50: > 10 µM
P210-BaF3
  GI50: > 10 µM
P210/T315I-BaF3
  GI50: > 10 µM
Tel-cKit-BaF3
  GI50: > 10 µM
Tel-cKit/T670I-BaF3
  GI50: > 10 µM
Tel-FLT3-BaF3
  GI50: 0.744 µM
FLT3-ITD-BaF3
  GI50: 0.129 µM
Tel-RET-BaF3
  GI50: 0.229 µM
TEL-PDGFRα-BaF3
  GI50: 0.013 µM
TEL-PDGFRβ-BaF3
  GI50: 0.105 µM
TEL-VEGFR2-BaF3
  GI50: 0.553 µM

## CC(=O)Nc1cc(Oc2ccc(NC(=O)Cc3cccc(F)c3F)cc2)ncn1 [Example 16, N-[4-(6-acetylamino-pyrimidin-4-yloxy)-phenyl]-2-(2,3-difluoro-phenyl)-acetamide]
BaF3
  GI50: > 10 µM
P210-BaF3
  GI50: > 10 µM
P210/T315I-BaF3
  GI50: > 10 µM
Tel-cKit-BaF3
  GI50: > 10 µM
Tel-cKit/T670I-BaF3
  GI50: > 10 µM
Tel-FLT3-BaF3
  GI50: 0.818 µM
FLT3-ITD-BaF3
  GI50: 0.247 µM
Tel-RET-BaF3
  GI50: 0.247 µM
TEL-PDGFRα-BaF3
  GI50: 0.012 µM
TEL-PDGFRβ-BaF3
  GI50: 0.109 µM
TEL-VEGFR2-BaF3
  GI50: 0.853 µM

## CC(=O)Nc1cc(Oc2ccc(NC(=O)Cc3ccc(Cl)cc3Cl)cc2)ncn1 [Example 8, N-[4-(6-acetylamino-pyrimidin-4-yloxy)-phenyl]-2-(2,4-dichloro-phenyl)-acetamide]
BaF3
  GI50: > 10 µM
P210-BaF3
  GI50: 6.74 µM
P210/T315I-BaF3
  GI50: > 10 µM
Tel-cKit-BaF3
  GI50: 0.524 µM
Tel-cKit/T670I-BaF3
  GI50: > 10 µM
Tel-FLT3-BaF3
  GI50: 0.017 µM
FLT3-ITD-BaF3
  GI50: 0.004 µM
Tel-RET-BaF3
  GI50: > 10 µM
TEL-PDGFRα-BaF3
  GI50: 0.001 µM
TEL-PDGFRβ-BaF3
  GI50: 0.003 µM
TEL-VEGFR2-BaF3
  GI50: 0.139 µM

## Cc1ccc(NC(=O)Nc2ccc(Oc3cc(NCCN4CCCC4)ncn3)cc2)cc1C(F)(F)F [Example 122, 1-(4-methyl-3-trifluoromethyl-phenyl)-3-{4-[6-(2-pyrrolidin-1-yl-ethylamino)-pyrimidin-4-yloxy]-phenyl}-urea]
BaF3
  GI50: 3.37 µM
P210-BaF3
  GI50: 3.92 µM
P210/T315I-BaF3
  GI50: 3.92 µM
Tel-cKit-BaF3
  GI50: 0.391 µM
Tel-cKit/T670I-BaF3
  GI50: 0.394 µM
Tel-FLT3-BaF3
  GI50: 0.206 µM
FLT3-ITD-BaF3
  GI50: 0.036 µM
Tel-RET-BaF3
  GI50: 4.3 µM
TEL-PDGFRα-BaF3
  GI50: 0.008 µM
TEL-PDGFRβ-BaF3
  GI50: 0.017 µM
TEL-VEGFR2-BaF3
  GI50: 0.17 µM
